Laboratory results: patent US20110177161A1, “PHARMACEUTICAL COMPOSITIONS OF [5(S)-(2'-HYDROXYETHOXY)-20(S)-CAMPTOTHECIN” (DR. REDDY'S LABORATORIES LIMITED, priority 2007, published 2011)
Values after ≈ are worked out from the molar mass of the structure shown. Marks after values point to notes of the source that are not given here.

Assays:
physchem = type: physicochemical
Description: Excess amounts of DRF-(5S,20S)-1042 were added to aqueous solutions of HPBCD with concentrations ranging from 0-40% w/v and the suspensions were shaken at 200 rpm and 25° C. in an incubator shaker, till no further DRF-(5S,20S)-1042 went into solution. The solutions were filtered through a 0.22 μm membrane filter and subjected to analysis by HPLC by a process described above. The results are described in Table 3 and in FIG. 1.

[1] = Solution stability in different alkaline solutions (HPLC impurities); type: physicochemical; design: C = Dimer impurity: unit not given beside the values
[2] = system: 34 human cancer cell lines; assay: In vitro cell growth assay, Sulphorhodamine B (SRB); type: cell-based; conditions: 48 h exposure
Description: Cell proliferation was evaluated by Sulphorhodamine B (SRB) assay where the amount of dye bound to the cells after staining gives a measure of cell growth. Refer to: JNCI, vol 83, No. 11, Jun. 5, 1991, which is incorporated herein by reference.
Briefly, cells (34 human cancer cell lines represented by bladder, breast, CNS, colon, epidermoid, lung, ovarian, melanoma, prostate, renal and uterine cancers) were seeded on a 96-well cell culture plates at a concentration of 10,000 cells per well and incubated at 37 degree C. in a CO2 incubator. Twenty-four hours later, cells were treated with different concentrations of […] dissolved in DMSO to a final concentration of 0.05% in the culture medium and exposed for 48 h. Cells were fixed by adding ice-cold 50% trichloroacetic acid (TCA) and incubating for 1 h at 4° C. The plates were washed with distilled water, air dried and stained with SRB solution (0.4% wt/vol in 1% Acetic acid) for 10 min at room temperature. Unbound SRB was removed by washing thoroughly with 1% acetic acid and the plates were air-dried. The bound SRB stain was solubilized with 10 mM Tris buffer, and the optical densities were read on a spectrophotometric plate reader at a single wavelength of 515 nm. […] From the optical densities the percentage growths were calculated using the following formulae: […]

in vivo [3] = assay: in vivo; design: species or system Swiss Albino mice; conditions: Swiss Albino, mouse, po, 2.5 mg/kg
Description: 5(S)-CPT (2.5 mg/kg) and 5(RS)-CPT (5 mg/kg, including 2.5 mg/kg of 5(S)-CPT in the mixture) were been administered to Swiss Albino mice to evaluate oral pharmacokinetics.
(§1) Swiss Albino mice, 3-6 weeks of age and weighing between 28-34 g were used in the study. Twelve mice were used per study. The oral pharmacokinetics test was carried out in overnight fasted condition and intravenous pharmacokinetics was carried out in fed condition. The test drugs were administered as a solution by oral gavage or lateral tail vein injection. Sparse blood samples of about 250 microliters were collected from retro-orbital plexus at designated time points into microcentrifuge tubes containing 25 microliters of EDTA. Plasma was separated by centrifuging blood at 12,800 rpm for 2 min and refrigerated until analysis.
Samples were tested for the presence of the test drug as follows. An aliquot of 100µl plasma (stored at 8° C.) was precipitated with 400µl of cold methanol for the estimation of total (lactone+carboxylate). […] Concentrations of the test drug were calculated from the linearity plotted by spiking known concentrations of the test drug in blank rat plasma. The pharmacokinetics of the test drug was calculated using non-compartmental analysis.

in vivo [4] = assay: in vivo; design: species or system male Wistar rats; conditions: male, Wistar, rat, po, 2.5 mg/kg
Description: 5(S)-CPT (2.5 mg/kg) and 5(RS)-CPT (5 mg/kg, including 2.5 mg/kg of 5(S)-CPT in the mixture) were been administered to male Wistar Rats to evaluate oral pharmacokinetics.
as §1, with “Male Wistar rats, 6-8” for “Swiss Albino mice, 3-6”, “205 and 218” for “28-34”, “divided into groups of four rats.” for “used in the study. Twelve mice were used per study.”
Samples were tested for the presence of the test drug as follows. An aliquot of 100 μL plasma (stored at 8° C.) was precipitated with 400 μL of cold methanol for the estimation of total (lactone+carboxylate). […] Concentrations of the test drug were calculated from the linearity plotted by spiking known concentrations of the test drug in blank rat plasma. The pharmacokinetics of the test drug was calculated using non-compartmental analysis.

[5] = Arginine neutralized, 24 hours RT
[6] = Meglumine neutralized, 24 hours RT

For `CC[C@@]1(O)C(=O)OCc2c1cc1n(c2=O)[C@@H](OCCO)c2cc3ccccc3nc2-1` [DRF-(5S,20S)-1042, 5(S)-(2′-hydroxyethoxy)-20(S)-camptothecin], the “increase in aqueous solubility and solubility in bio-relevant media vs uncomplexed state” value (physchem) was “more than 50 fold”, the “increase in aqueous solubility when compared with water alone” value (physchem) was “over 50 fold” and the solubility (physchem; 25 °C, water, thermodynamic from solid, Solubility) was 20 µg/mL (≈ 49 µM). For the same compound, the “A = DRF (5R,20S)-1042” value ([1]; Arginine as is, 24 hours RT) was 5.22, the “B = Decarboxylated impurity” value ([1]; Arginine as is, 24 hours RT) was 0.19 and the “C = Dimer impurity” value ([1]; Arginine as is, 24 hours RT) was 0.95. For the same compound, the “D = Total impurities excluding DRF (5R,20S)-1042” value ([1]; Arginine as is, 24 hours RT) was 3.23, the “A = DRF (5R,20S)-1042” value ([1]; Arginine as is, Initial) was 3.45 and the “B = Decarboxylated impurity” value ([1]; Arginine as is, Initial) was 0.06. For the same compound, the “C = Dimer impurity” value ([1]; Arginine as is, Initial) was 0.88, the “D = Total impurities excluding DRF (5R,20S)-1042” value ([1]; Arginine as is, Initial) was 2.50 and the “A = DRF (5R,20S)-1042” value [1, 5] was 3.26. For the same compound, the “B = Decarboxylated impurity” value [1, 5] was 0.18, the “C = Dimer impurity” value [1, 5] was 0.93 and the “D = Total impurities excluding DRF (5R,20S)-1042” value [1, 5] was 3.11. The “A = DRF (5R,20S)-1042” value ([1]; Arginine neutralized, Initial) was 3.38, the “B = Decarboxylated impurity” value ([1]; Arginine neutralized, Initial) was 0.04 and the “C = Dimer impurity” value ([1]; Arginine neutralized, Initial) was 0.9. For the same compound, the “D = Total impurities excluding DRF (5R,20S)-1042” value ([1]; Arginine neutralized, Initial) was 2.64, the “A = DRF (5R,20S)-1042” value ([1]; Meglumine as is, 24 hours RT) was 2.30 and the “B = Decarboxylated impurity” value ([1]; Meglumine as is, 24 hours RT) was 0.33. For the same compound, the “C = Dimer impurity” value ([1]; Meglumine as is, 24 hours RT) was 7.17*, the “D = Total impurities excluding DRF (5R,20S)-1042” value ([1]; Meglumine as is, 24 hours RT) was 11.1 and the “A = DRF (5R,20S)-1042” value ([1]; Meglumine as is, Initial) was 2.77. The “B = Decarboxylated impurity” value ([1]; Meglumine as is, Initial) was 0.21, the “C = Dimer impurity” value ([1]; Meglumine as is, Initial) was 12.04 and the “D = Total impurities excluding DRF (5R,20S)-1042” value ([1]; Meglumine as is, Initial) was 21.15. The “A = DRF (5R,20S)-1042” value [1, 6] was 2.57, the “B = Decarboxylated impurity” value [1, 6] was 0.33 and the “C = Dimer impurity” value [1, 6] was 1.47. For the same compound, the “D = Total impurities excluding DRF (5R,20S)-1042” value [1, 6] was 5.02, the “A = DRF (5R,20S)-1042” value ([1]; Meglumine neutralized, Initial) was 1.05 and the “B = Decarboxylated impurity” value ([1]; Meglumine neutralized, Initial) was 0.03. For the same compound, the “C = Dimer impurity” value ([1]; Meglumine neutralized, Initial) was 0.54, the “D = Total impurities excluding DRF (5R,20S)-1042” value ([1]; Meglumine neutralized, Initial) was 1.49 and the “A = DRF (5R,20S)-1042” value ([1]; NaOH as is, 24 hours RT) was 101.79. The “B = Decarboxylated impurity” value ([1]; NaOH as is, 24 hours RT) was 0.02, the “C = Dimer impurity” value ([1]; NaOH as is, 24 hours RT) was 0.48 and the “D = Total impurities excluding DRF (5R,20S)-1042” value ([1]; NaOH as is, 24 hours RT) was 1.95. For the same compound, the “A = DRF (5R,20S)-1042” value ([1]; NaOH as is, Initial) was 75.40, the “B = Decarboxylated impurity” value ([1]; NaOH as is, Initial) was 0.02 and the “C = Dimer impurity” value ([1]; NaOH as is, Initial) was 0.35. For the same compound, the “D = Total impurities excluding DRF (5R,20S)-1042” value ([1]; NaOH as is, Initial) was 1.81, the “A = DRF (5R,20S)-1042” value ([1]; NaOH neutralized, 24 hours RT) was 56.26 and the “B = Decarboxylated impurity” value ([1]; NaOH neutralized, 24 hours RT) was 0.02. The “C = Dimer impurity” value ([1]; NaOH neutralized, 24 hours RT) was 0.37, the “D = Total impurities excluding DRF (5R,20S)-1042” value ([1]; NaOH neutralized, 24 hours RT) was 2.22 and the “A = DRF (5R,20S)-1042” value ([1]; NaOH neutralized, Initial) was 56.75. The “B = Decarboxylated impurity” value ([1]; NaOH neutralized, Initial) was 0.02, the “C = Dimer impurity” value ([1]; NaOH neutralized, Initial) was 0.38 and the “D = Total impurities excluding DRF (5R,20S)-1042” value ([1]; NaOH neutralized, Initial) was 1.81. It also gave a GI50 [2] of 5 µM, an AUC (in vivo [3]) of 1.1 µM·h and an AUC (in vivo [4]) of 1.21 µM·h.
